{"source": "paper PMC3997621", "about": "(The Journal of comparative neurology, 2014)", "target": "T1, InvD1L (invertebrate specific D1-like dopamine receptor) (Ixodes scapularis, UniProt A0ACM8DGL0)", "T1 sequence (A0ACM8DGL0 1-457)": "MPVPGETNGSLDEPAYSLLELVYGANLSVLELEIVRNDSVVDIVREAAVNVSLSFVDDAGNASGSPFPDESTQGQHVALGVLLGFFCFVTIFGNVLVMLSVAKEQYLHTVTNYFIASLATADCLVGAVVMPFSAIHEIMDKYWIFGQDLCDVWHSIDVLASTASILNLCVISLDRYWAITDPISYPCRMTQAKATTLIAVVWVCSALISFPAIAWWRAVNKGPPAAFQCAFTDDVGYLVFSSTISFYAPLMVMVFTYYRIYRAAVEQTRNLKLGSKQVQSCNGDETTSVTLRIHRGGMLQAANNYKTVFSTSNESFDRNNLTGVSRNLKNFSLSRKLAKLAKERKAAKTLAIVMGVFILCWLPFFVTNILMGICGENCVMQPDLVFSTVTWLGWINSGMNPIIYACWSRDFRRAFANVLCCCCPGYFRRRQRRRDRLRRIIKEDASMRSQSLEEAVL", "test": "cell-based", "data": [{"smiles": "NCCc1ccc(O)c(O)c1", "note": "[DA, dopamine]", "values": [{"measurement": "EC50", "value": 1340, "unit": "nM"}]}]}
